Legend:
[1] = Inventors' findings on amounts of L-arginine and L-citrulline in the unit dosage; assay type: in vivo
Source text: Furthermore, higher amounts of L-arginine worsened the organoleptic properties of the unit dosage.
In an embodiment of the invention, the unit dosage comprises L-citrulline or a physiologically acceptable salt or hydrate thereof in the range from 0.5-3.0 g, such as 0.5-2.9 g, preferably 0.5-2.8 g, more preferably 0.5-2.7 g, such as 0.7-2.0 g, preferably 0.9-2.0 g, more preferably 1.1-2.0 g, even more preferably 1.3-2.0 g, most preferably 1.5-2.0 g.

[2] = oral; cited from earlier work

Compound | amount above which side effects occurred in some instances (e.g. stomachache) [1] | most efficacious amount in the unit dosage [1] [g] | level above which some adverse effects, most commonly diarrhea, have been seen [2] | amount above which efficacy of a unit dosage was not improved further (plateau of efficacy) [1]
N=C(N)NCCC[C@H](N)C(=O)O [L-arginine] | above 10 g | 6.0 | above 20 g per day | 
NC(=O)NCCC[C@H](N)C(=O)O [L-citrulline] |  |  |  | above 2.0 g
